Like-named read-outs stand apart in the source and are kept apart here.
Experiments:
[1] = system: Colletotrichum gloeobosporioids; assay: Bactericidal (fungicidal) activity by microdilution; type: cell-based
Magnaporthe oryzae = type: cell-based
[2] = system: Corynespora leaf spot of tomato; assay: Bactericidal (fungicidal) activity by microdilution; type: cell-based
Plutella xylostella = assay: Insecticidal activity, artificial feed surface coating method; type: in vivo; details: Plutella xylostella, read-out: Insecticidal activity (mortality rate grade) Plutella xylostella
Summary of the method: (§1)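 Artificial diet in 24-well plates, surface-coated with test solution at 500, 250 and 125 mg/L. Each concentration was tested in two replicates (Rep1, Rep2).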

Heliothis armigera = assay: as above; type: in vivo; details: Helicoverpa armigera, read-out: Insecticidal activity (mortality rate grade) Heliothis armigera
Summary of the method: as §1

Alternaria kikuchiana = assay: Bactericidal (fungicidal) activity by microdilution; type: cell-based
Pythium aphanidermatum = assay: as above; type: cell-based
Thanatephorus cucumeris = assay: as above; type: cell-based
Fusarium culmorum = assay: as above; type: cell-based
Rhizoctonia solani = assay: as above; type: cell-based
Septoria nodorum Berk. = assay: as above; type: cell-based
Botrytis cinerea = assay: as above; type: cell-based
Aphiscraccivora = assay: Insecticidal activity, dipping method; type: in vivo
Summary of the method: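 Aphids tested by dipping in ethanol-dissolved compound diluted to 500, 250 or 125 mg/L with 0.1 mL/L Tween-80, two replicates plus blank control. Mortality scored on a 0/3/5/7/9 scale for 0–30, 30–50, 50–70, 70–90 and 90–100%.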

[3] = system: Fusarium oxysporum f. sp. Niveum; assay: Bactericidal (fungicidal) activity by microdilution; type: cell-based
[4] = system: Verticillium dahliae.kieb.; assay: as above; type: cell-based
Leptosphaeria biglobosa = assay: as above; type: cell-based

COC(=O)Nc1nc2ccccc2n1C/C=C/S(=O)(=O)O [III-2]
Fungicidal activity (antibacterial rate grade) Colletotrichum gloeobosporioids ([1]; 12.5 mg/L): 9 (The antibacterial rate of 90˜100% could be set as 9 if the target has totally no growth) | Fungicidal activity (antibacterial rate grade) Colletotrichum gloeobosporioids ([1]; 25 mg/L): 9 (The antibacterial rate of 90˜100% could be set as 9 if the target has totally no growth) | Fungicidal activity (antibacterial rate grade) Colletotrichum gloeobosporioids ([1]; 50 mg/L): 9 (The antibacterial rate of 90˜100% could be set as 9 if the target has totally no growth) | Fungicidal activity (antibacterial rate grade) Colletotrichum gloeobosporioids ([1]; 100 mg/L): 9 (The antibacterial rate of 90˜100% could be set as 9 if the target has totally no growth) | Fungicidal activity (antibacterial rate grade) Magnaporthe oryzae (Magnaporthe oryzae; 12.5 mg/L): 9 (The antibacterial rate of 90˜100% could be set as 9 if the target has totally no growth) | Fungicidal activity (antibacterial rate grade) Magnaporthe oryzae (Magnaporthe oryzae; 25 mg/L): 9 (The antibacterial rate of 90˜100% could be set as 9 if the target has totally no growth) | Fungicidal activity (antibacterial rate grade) Magnaporthe oryzae (Magnaporthe oryzae; 50 mg/L): 9 (The antibacterial rate of 90˜100% could be set as 9 if the target has totally no growth) | Fungicidal activity (antibacterial rate grade) Magnaporthe oryzae (Magnaporthe oryzae; 100 mg/L): 9 (The antibacterial rate of 90˜100% could be set as 9 if the target has totally no growth) | Fungicidal activity (antibacterial rate grade) Corynespora leaf spot of tomato ([2]; 12.5 mg/L): 3 (The antibacterial rate of 0˜30% could be set as 3 if the growth of the target is normal and consistent with that of the blank control) | Fungicidal activity (antibacterial rate grade) Corynespora leaf spot of tomato ([2]; 25 mg/L): 3 (The antibacterial rate of 0˜30% could be set as 3 if the growth of the target is normal and consistent with that of the blank control) | Fungicidal activity (antibacterial rate grade) Corynespora leaf spot of tomato ([2]; 50 mg/L): 7 (The antibacterial rate of 70˜90% could be set as 7 if the target has small amounts of growth) | Fungicidal activity (antibacterial rate grade) Corynespora leaf spot of tomato ([2]; 100 mg/L): 7 (The antibacterial rate of 70˜90% could be set as 7 if the target has small amounts of growth) | mortality at 125 µg/mL (Plutella xylostella; 125 mg/L test solution): 0 to 30% | mortality at 250 µg/mL (Plutella xylostella; 250 mg/L test solution): 0 to 30% | mortality at 500 µg/mL (Plutella xylostella; 500 mg/L test solution): 0 to 30% | mortality at 125 µg/mL (Heliothis armigera; 125 mg/L test solution): 0 to 30% | mortality at 250 µg/mL (Heliothis armigera; 250 mg/L test solution): 0 to 30% | mortality at 500 µg/mL (Heliothis armigera; 500 mg/L test solution): 0 to 30% | Fungicidal activity (antibacterial rate grade) Alternaria kikuchiana (Alternaria kikuchiana; 12.5 mg/L): 3 (The antibacterial rate of 0˜30% could be set as 3 if the growth of the target is normal and consistent with that of the blank control) | Fungicidal activity (antibacterial rate grade) Alternaria kikuchiana (Alternaria kikuchiana; 25 mg/L): 3 (The antibacterial rate of 0˜30% could be set as 3 if the growth of the target is normal and consistent with that of the blank control) | Fungicidal activity (antibacterial rate grade) Alternaria kikuchiana (Alternaria kikuchiana; 50 mg/L): 3 (The antibacterial rate of 0˜30% could be set as 3 if the growth of the target is normal and consistent with that of the blank control) | Fungicidal activity (antibacterial rate grade) Alternaria kikuchiana (Alternaria kikuchiana; 100 mg/L): 3 (The antibacterial rate of 0˜30% could be set as 3 if the growth of the target is normal and consistent with that of the blank control) | Fungicidal activity (antibacterial rate grade) Pythium aphanidematum (Pythium aphanidermatum; 12.5 mg/L): 3 (The antibacterial rate of 0˜30% could be set as 3 if the growth of the target is normal and consistent with that of the blank control) | Fungicidal activity (antibacterial rate grade) Pythium aphanidematum (Pythium aphanidermatum; 25 mg/L): 3 (The antibacterial rate of 0˜30% could be set as 3 if the growth of the target is normal and consistent with that of the blank control) | Fungicidal activity (antibacterial rate grade) Pythium aphanidematum (Pythium aphanidermatum; 50 mg/L): 3 (The antibacterial rate of 0˜30% could be set as 3 if the growth of the target is normal and consistent with that of the blank control) | Fungicidal activity (antibacterial rate grade) Pythium aphanidematum (Pythium aphanidermatum; 100 mg/L): 3 (The antibacterial rate of 0˜30% could be set as 3 if the growth of the target is normal and consistent with that of the blank control) | Fungicidal activity (antibacterial rate grade) Thanatephorus cucumeris (Thanatephorus cucumeris; 12.5 mg/L): 9 (The antibacterial rate of 90˜100% could be set as 9 if the target has totally no growth) | Fungicidal activity (antibacterial rate grade) Thanatephorus cucumeris (Thanatephorus cucumeris; 25 mg/L): 9 (The antibacterial rate of 90˜100% could be set as 9 if the target has totally no growth) | Fungicidal activity (antibacterial rate grade) Thanatephorus cucumeris (Thanatephorus cucumeris; 50 mg/L): 9 (The antibacterial rate of 90˜100% could be set as 9 if the target has totally no growth) | Fungicidal activity (antibacterial rate grade) Thanatephorus cucumeris (Thanatephorus cucumeris; 100 mg/L): 9 (The antibacterial rate of 90˜100% could be set as 9 if the target has totally no growth) | Fungicidal activity (antibacterial rate grade) Fusarium culmorum (Fusarium culmorum; 12.5 mg/L): 7 (The antibacterial rate of 70˜90% could be set as 7 if the target has small amounts of growth) | Fungicidal activity (antibacterial rate grade) Fusarium culmorum (Fusarium culmorum; 25 mg/L): 9 (The antibacterial rate of 90˜100% could be set as 9 if the target has totally no growth) | Fungicidal activity (antibacterial rate grade) Fusarium culmorum (Fusarium culmorum; 50 mg/L): 9 (The antibacterial rate of 90˜100% could be set as 9 if the target has totally no growth) | Fungicidal activity (antibacterial rate grade) Fusarium culmorum (Fusarium culmorum; 100 mg/L): 9 (The antibacterial rate of 90˜100% could be set as 9 if the target has totally no growth) | Fungicidal activity (antibacterial rate grade) Rhizoctonia solani (Rhizoctonia solani; 12.5 mg/L): 3 (The antibacterial rate of 0˜30% could be set as 3 if the growth of the target is normal and consistent with that of the blank control) | Fungicidal activity (antibacterial rate grade) Rhizoctonia solani (Rhizoctonia solani; 25 mg/L): 3 (The antibacterial rate of 0˜30% could be set as 3 if the growth of the target is normal and consistent with that of the blank control) | Fungicidal activity (antibacterial rate grade) Rhizoctonia solani (Rhizoctonia solani; 50 mg/L): 3 (The antibacterial rate of 0˜30% could be set as 3 if the growth of the target is normal and consistent with that of the blank control) | Fungicidal activity (antibacterial rate grade) Rhizoctonia solani (Rhizoctonia solani; 100 mg/L): 3 (The antibacterial rate of 0˜30% could be set as 3 if the growth of the target is normal and consistent with that of the blank control) | Fungicidal activity (antibacterial rate grade) Septoria nodorum Berk. (Septoria nodorum Berk.; 12.5 mg/L): 9 (The antibacterial rate of 90˜100% could be set as 9 if the target has totally no growth) | Fungicidal activity (antibacterial rate grade) Septoria nodorum Berk. (Septoria nodorum Berk.; 25 mg/L): 9 (The antibacterial rate of 90˜100% could be set as 9 if the target has totally no growth) | Fungicidal activity (antibacterial rate grade) Septoria nodorum Berk. (Septoria nodorum Berk.; 50 mg/L): 9 (The antibacterial rate of 90˜100% could be set as 9 if the target has totally no growth) | Fungicidal activity (antibacterial rate grade) Septoria nodorum Berk. (Septoria nodorum Berk.; 100 mg/L): 9 (The antibacterial rate of 90˜100% could be set as 9 if the target has totally no growth) | Fungicidal activity (antibacterial rate grade) Botrytis cinerea (Botrytis cinerea; 12.5 mg/L): 3 (The antibacterial rate of 0˜30% could be set as 3 if the growth of the target is normal and consistent with that of the blank control) | Fungicidal activity (antibacterial rate grade) Botrytis cinerea (Botrytis cinerea; 25 mg/L): 3 (The antibacterial rate of 0˜30% could be set as 3 if the growth of the target is normal and consistent with that of the blank control) | Fungicidal activity (antibacterial rate grade) Botrytis cinerea (Botrytis cinerea; 50 mg/L): 3 (The antibacterial rate of 0˜30% could be set as 3 if the growth of the target is normal and consistent with that of the blank control) | Fungicidal activity (antibacterial rate grade) Botrytis cinerea (Botrytis cinerea; 100 mg/L): 3 (The antibacterial rate of 0˜30% could be set as 3 if the growth of the target is normal and consistent with that of the blank control) | Insecticidal activity (mortality rate grade) Aphiscraccivora (Aphiscraccivora; 125 mg/L test solution): 0 (mortality rate of 0˜30%) | Insecticidal activity (mortality rate grade) Aphiscraccivora (Aphiscraccivora; 250 mg/L test solution): 0 (mortality rate of 0˜30%) | Insecticidal activity (mortality rate grade) Aphiscraccivora (Aphiscraccivora; 500 mg/L test solution): 0 (mortality rate of 0˜30%) | Fungicidal activity (antibacterial rate grade) Fusarium oxysporum f. sp. Niveum ([3]; 12.5 mg/L): 9 (The antibacterial rate of 90˜100% could be set as 9 if the target has totally no growth) | Fungicidal activity (antibacterial rate grade) Fusarium oxysporum f. sp. Niveum ([3]; 25 mg/L): 9 (The antibacterial rate of 90˜100% could be set as 9 if the target has totally no growth) | Fungicidal activity (antibacterial rate grade) Fusarium oxysporum f. sp. Niveum ([3]; 50 mg/L): 9 (The antibacterial rate of 90˜100% could be set as 9 if the target has totally no growth) | Fungicidal activity (antibacterial rate grade) Fusarium oxysporum f. sp. Niveum ([3]; 100 mg/L): 9 (The antibacterial rate of 90˜100% could be set as 9 if the target has totally no growth) | Fungicidal activity (antibacterial rate grade) Verticillium dahliae. kieb. ([4]; 12.5 mg/L): 9 (The antibacterial rate of 90˜100% could be set as 9 if the target has totally no growth) | Fungicidal activity (antibacterial rate grade) Verticillium dahliae. kieb. ([4]; 25 mg/L): 9 (The antibacterial rate of 90˜100% could be set as 9 if the target has totally no growth) | Fungicidal activity (antibacterial rate grade) Verticillium dahliae. kieb. ([4]; 50 mg/L): 9 (The antibacterial rate of 90˜100% could be set as 9 if the target has totally no growth) | Fungicidal activity (antibacterial rate grade) Verticillium dahliae. kieb. ([4]; 100 mg/L): 9 (The antibacterial rate of 90˜100% could be set as 9 if the target has totally no growth) | Fungicidal activity (antibacterial rate grade) Leptosphaeria biglobosa (Leptosphaeria biglobosa; 12.5 mg/L): 9 (The antibacterial rate of 90˜100% could be set as 9 if the target has totally no growth) | Fungicidal activity (antibacterial rate grade) Leptosphaeria biglobosa (Leptosphaeria biglobosa; 25 mg/L): 9 (The antibacterial rate of 90˜100% could be set as 9 if the target has totally no growth) | Fungicidal activity (antibacterial rate grade) Leptosphaeria biglobosa (Leptosphaeria biglobosa; 50 mg/L): 9 (The antibacterial rate of 90˜100% could be set as 9 if the target has totally no growth) | Fungicidal activity (antibacterial rate grade) Leptosphaeria biglobosa (Leptosphaeria biglobosa; 100 mg/L): 9 (The antibacterial rate of 90˜100% could be set as 9 if the target has totally no growth)

— US20250084061A1, “SULFONYL FUNCTIONAL COMPOUND, METHODS AND USES THEREOF” (Hubei Biopesticide Engineering Research Centre, priority 2023, published 2025)
